This experiment concerns the target T1, H+/K+-ATPase (Sus scrofa, UniProt P19156).
T1 construct: reaction buffer solution (60 mmol/l Tris-HCl buffer solution, pH 7.4) containing hog gastric vesicle; from tissue; host or cells: hog stomach (gastric vesicles, by centrifugation after Rabon et al. 1988)
The experiment is described as follows: Inhibition of proton pump (H+/K+-ATPase) activity in hog gastric vesicles. Type of experiment: biochemical. As to conditions: K+ specific H+/K+-ATPase activity, pH 7.4, 37° C. for 40 minutes, malachite green. As for the experimental part: 1) Preparation of Gastric Vesicles
Gastric vesicles were prepared from hog stomach by centrifugation (Edd C. Rabon et al., Preparation of Gastric H^+,K^+-ATPase, Methods in enzymology, vol. 157 Academic Press Inc., (1988), pp. 649-654). The protein contents of the prepared gastric vesicles were quantified with a Bicinchoninic Acid (BCA) kit.
2) Measurement of Effect of Inhibiting Proton Pump (H^+/K^+-ATPase) Activity
The effect of inhibiting proton pump activity by the compound of the present invention was measured in a 96-well plate. In this experiment, K^+ specific H^+/K^+-ATPase activity was calculated based on the difference between H^+/K^+-ATPase activity in the presence of K^+ ions and H^+/K^+-ATPase activity in the absence of K^+ ions. In the 96-well plate, to negative and positive control groups, 0.5% dimethylsulfoxide (DMSO) in buffer was added, and to the test groups, the compound of the present invention was added. All the analyses were conducted at room temperature with the reaction volume of 100 μl. To a reaction buffer solution (60 mmol/l Tris-HCl buffer solution, pH 7.4) containing hog gastric vesicle, DMSO and each concentration of compound were added, and then, 10 μl of a 10 mmol/l adenosine triphosphate tris buffer solution (60 mmol/l Tris-HCl buffer solution, pH 7.4) was added to initiate an enzyme reaction. The enzyme reaction was conducted at 37° C. for 40 minutes, 50 μl of a malachite green solution (0.12% malachite green solution, 5.8% ammonium molybdate and 11% tween 20 were mixed at a ratio of 100:67:2 in 6.2 N sulfuric acid) was added to stop the reaction, and 50 μl of 15.1% sodium citrate was added. During the reaction, the amount of monophosphate (Pi) was measured at 570 nm using micro plate reader (FLUOstar Omega, BMG Company). Inhibition rate (%) was measured from the activity values of the control groups and the activity values of various concentrations of the test compound, and IC50 of the test compound was calculated from each % inhibition value of the compound using Logistic 4-parameter function of Sigmaplot 8.0 program.
T1 sequence (P19156 2-1034 limits assumed): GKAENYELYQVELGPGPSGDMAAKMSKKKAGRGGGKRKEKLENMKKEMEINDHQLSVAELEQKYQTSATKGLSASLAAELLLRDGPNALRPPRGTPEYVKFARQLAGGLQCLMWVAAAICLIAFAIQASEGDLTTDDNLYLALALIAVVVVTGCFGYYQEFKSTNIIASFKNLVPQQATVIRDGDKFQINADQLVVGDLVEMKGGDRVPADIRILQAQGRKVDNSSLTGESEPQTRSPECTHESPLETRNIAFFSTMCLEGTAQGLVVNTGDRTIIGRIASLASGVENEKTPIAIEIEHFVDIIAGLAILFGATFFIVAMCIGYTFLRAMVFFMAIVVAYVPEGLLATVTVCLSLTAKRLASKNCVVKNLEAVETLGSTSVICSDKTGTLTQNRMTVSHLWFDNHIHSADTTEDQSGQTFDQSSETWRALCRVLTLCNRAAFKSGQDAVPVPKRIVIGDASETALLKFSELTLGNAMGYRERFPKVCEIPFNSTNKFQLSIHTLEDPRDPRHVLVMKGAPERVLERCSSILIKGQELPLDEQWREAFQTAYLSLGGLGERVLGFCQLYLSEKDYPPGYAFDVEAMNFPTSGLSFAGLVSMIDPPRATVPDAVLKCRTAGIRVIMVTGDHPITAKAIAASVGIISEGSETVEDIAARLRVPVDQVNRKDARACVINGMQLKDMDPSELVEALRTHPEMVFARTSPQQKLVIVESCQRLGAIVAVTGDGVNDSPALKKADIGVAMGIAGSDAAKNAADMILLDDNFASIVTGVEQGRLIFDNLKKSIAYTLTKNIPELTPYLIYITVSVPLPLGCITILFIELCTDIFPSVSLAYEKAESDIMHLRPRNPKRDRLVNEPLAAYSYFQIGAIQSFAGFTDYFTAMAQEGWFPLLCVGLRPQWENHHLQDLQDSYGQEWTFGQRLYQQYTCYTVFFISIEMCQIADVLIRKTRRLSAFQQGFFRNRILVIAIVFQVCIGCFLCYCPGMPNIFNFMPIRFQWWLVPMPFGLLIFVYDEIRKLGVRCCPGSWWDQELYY
T1 sequence (P18434 whole entry partner): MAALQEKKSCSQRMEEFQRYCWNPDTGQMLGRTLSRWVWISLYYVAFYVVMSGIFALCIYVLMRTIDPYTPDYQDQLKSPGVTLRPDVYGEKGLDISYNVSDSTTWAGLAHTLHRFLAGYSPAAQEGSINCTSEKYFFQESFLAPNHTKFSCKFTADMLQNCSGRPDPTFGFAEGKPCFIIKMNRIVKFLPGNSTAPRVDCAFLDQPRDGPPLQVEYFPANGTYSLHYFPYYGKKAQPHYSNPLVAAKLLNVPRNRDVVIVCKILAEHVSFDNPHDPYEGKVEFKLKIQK
For the compound `CNC1CCCc2c1cn(S(=O)(=O)c1cccnc1)c2-c1ccccc1C` (centres unmarked) [Example 132, N-methyl-2-(pyridin-3-ylsulfonyl)-1-(o-tolyl)-4,5,6,7-tetrahydro-2H-isoindole-4-amine], the IC50 (as a rule, the concentration needed to halve the response being measured) was found to be 8000 nM. That is a single-digit micromolar value.
The compound `CNC1CCc2c1cn(S(=O)(=O)c1cccc(Cl)c1)c2-c1ccc(OC(F)(F)F)cc1` (centres unmarked) [Example 17, 2-((3-chlorophenyl)sulfonyl)-N-methyl-1-(4-(trifluoromethoxy)phenyl)-2,4,5,6-tetrahydrocyclopenta[c]pyrrol-4-amine] came in with an IC50 of 1390 nM.
Under `CNC1CCCc2c1cn(S(=O)(=O)c1cccc(N(C)C)c1)c2-c1ccccc1F` (centres unmarked) [Example 130, 2-((3-(dimethylamino)phenyl)sulfonyl)-1-(2-fluorophenyl)-N-methyl-4,5,6,7-tetrahydro-2H-isoindole-4-amine] stands 1500 nM; under `CN(C)c1cccc(S(=O)(=O)n2cc3c(c2-c2ccccc2F)CCCC3N(C)C)c1` (centres unmarked) [Example 143, 2-((3-(dimethylamino)phenyl)sulfonyl)-1-(2-fluorophenyl)-N,N-dimethyl-4,5,6,7-tetrahydro-2H-isoindole-4-amine], 5000 nM.
Under `CNC1CCc2c1cn(S(=O)(=O)c1ccccc1)c2-c1ccc(C)cc1F` (centres unmarked) [Example 44, 1-(2-fluoro-4-methylphenyl)-N-methyl-2-(phenylsulfonyl)-2,4,5,6-tetrahydrocyclopenta[c]pyrrol-4-amine] stands 650 nM; under `CNC1CCc2c1cn(S(=O)(=O)c1cccc(Cl)c1)c2-c1ccc(C#N)cc1` (centres unmarked) [Example 13, 4-(2-((3-chlorophenyl)sulfonyl)-4-(methylamino)-2,4,5,6-tetrahydrocyclopenta[c]pyrrol-1-yl)benzonitrile], 1800 nM; under `CNC1CCCc2c1cn(S(=O)(=O)c1cccc(Cl)c1)c2-c1cncnc1` (centres unmarked) [Example 129, 2-((3-chlorophenyl)sulfonyl)-N-methyl-1-(pyrimidin-5-yl)-4,5,6,7-tetrahydro-2H-isoindole-4-amine], 40000 nM.
Next, `CNC1CCCc2c1cn(S(=O)(=O)c1cc(Cl)ccc1F)c2-c1ccccc1F` (centres unmarked) [Example 126, 2-((5-chloro-2-fluorophenyl)sulfonyl)-1-(2-fluorophenyl)-N-methyl-4,5,6,7-tetrahydro-2H-isoindole-4-amine]: 4000 nM; `CNC1CCc2c1cn(S(=O)(=O)c1cc(C)cnc1Cl)c2-c1ccccc1F` (centres unmarked) [Example 100, 2-((2-chloro-5-methylpyridin-3-yl)sulfonyl)-1-(2-fluorophenyl)-N-methyl-2,4,5,6-tetrahydrocyclopenta[c]pyrrol-4-amine]: 7240 nM; `CNC1CCc2c1cn(S(=O)(=O)c1cc(Cl)c(Cl)cc1Cl)c2-c1ccccc1` (centres unmarked) [Example 81, N-methyl-1-phenyl-2-((2,4,5-trichlorophenyl)sulfonyl)-2,4,5,6-tetrahydrocyclopenta[c]pyrrol-4-amine]: 1140 nM.
For the compound `CNC1CCc2c1cn(S(=O)(=O)c1cccc(Cl)c1)c2C` (centres unmarked) [Example 2, 2-((3-chlorophenyl)sulfonyl)-N,1-dimethyl-2,4,5,6-tetrahydrocyclopenta[c]pyrrol-4-amine], the IC50 turned out to be 10000 nM.
Next, `CNC1CCc2c1cn(S(=O)(=O)c1cccc(Cl)c1)c2-c1ccc(Cl)cc1F` (centres unmarked) [Example 20, 1-(4-chloro-2-fluorophenyl)-2-((3-chlorophenyl)sulfonyl)-N-methyl-2,4,5,6-tetrahydrocyclopenta[c]pyrrol-4-amine]: 540 nM; `CNC1CCCc2c1cn(S(=O)(=O)c1cccnc1)c2-c1ccc(F)cc1F` (centres unmarked) [Example 135, 1-(2,4-difluorophenyl)-N-methyl-2-(pyridin-3-ylsulfonyl)-4,5,6,7-tetrahydro-2H-isoindole-4-amine]: 5000 nM.
Next, `CNC1CCc2c1cn(S(=O)(=O)c1cccc(Cl)c1)c2-c1ccc2c(c1)OCO2` (centres unmarked) [Example 28, 1-(benzo[d][1,3]dioxol-5-yl)-2-((3-chlorophenyl)sulfonyl)-N-methyl-2,4,5,6-tetrahydrocyclopenta[c]pyrrol-4-amine]: 590 nM.

(Values after patent publication US10039747B2, “Tetrahydrocyclopentapyrrole derivatives and a method for preparing the same” (Daewoong Pharmaceutical Co., Ltd., priority 2013, dated 2018).)
